Source: article PMC10761937, “Functional engineering of human iPSC‐derived parasympathetic neurons enhances responsiveness to gastrointestinal hormones” (FEBS Open Bio, 2023)
Where no end group is shown, it is not given here.

What was measured:
[1] = system: HTR3A; assay: Ca^2+ imaging, HTR3A‐HEK293T cells; type: cell-based, human; details: Fluo‐8 AM, Ringer's solution pH 7.4, ΔF/F 0, n = 10
Description: (§1) HEK293T cells (Lenti‐X 293T Cell line; TaKaRa, Shiga, Japan) were maintained in Dulbecco's Modified Eagle Medium (DMEM; Fujifilm Wako Pure Chemical Industries, Osaka, Japan) supplemented with 10% fetal bovine serum (Biowest, Nuaillé, France), 1% non‐essential amino acids (NEAA) (Fujifilm Wako Pure Chemical Industries), and 1% penicillin–streptomycin (P/S) (Fujifilm Wako Pure Chemical Industries) and cultured in non‐coated culture plates at 37 °C and in an incubator with 5% CO2. The culture medium was replaced every 2–3 days. At 80–90% confluence, the cell colonies were digested into single cells using TrypLE Express (Thermo Fisher Scientific). The resulting cells were used for lentiviral transfection and agonist experiments.
(§2) Figure S1 presents the protocol used for this experiment. Lentiviral vectors were acquired from VectorBuilder (VectorBuilder Japan, Inc., Kanagawa, Japan). […]
(§3) Transduced HEK293T and neurons were incubated with 10 μM Fluo‐8 AM, a calcium indicator (AAT Bioquest, Pleasanton, CA, USA), in each culture medium (Cell lines and cell culture and Induction to parasympathetic neurons sections) at 37 °C for 30 min. […] Fluorescence (excitation: 490 nm, emission: 525 nm) was detected using a confocal spinning disk confocal laser scanning unit (CSU‐W1; Yokogawa Electric, Tokyo, Japan) and an LED light (X‐Cite 120LED; Opto Science, Tokyo, Japan). […]

[2] = system: rat nodal ganglion cells; details: various concentrations; ref [31], [32], [33], [34]; cited from earlier work
Description: Previous reports indicate that rat nodal ganglion cells respond to various concentrations of hormones, including CCK, GLP1, PYY, and 5‐HT [31, 32, 33, 34]. […] However, it is noteworthy that the overexpression of these receptors in our model may not reconstruct natural expres ...

[3] = system: HTR3A‐neurons; assay: Ca^2+ imaging, directly transduced HTR3A‐neurons; type: cell-based, human; details: 100 μM 5‐HT; HTR3A‐neurons (transduced during differentiation) day 35; Fluo‐8 AM; n = 20; Student's t‐test vs. 0 μM
Description: (§4) Before initiating differentiation, the iPSCs (1–2 × 10^5 cells·cm^−2; Cell lines and cell culture section) were transferred to 6‐well plates (Corning, Inc., Corning, NY, USA) coated with 2‐methacryloyloxyethyl phosphorylcholine (MPC) polymer (Lipidure CM5206E; NOF, Tokyo, Japan). The cells were maintained in mTeSR1 cGMP medium containing 10 μM Y‐27632 (Fujifilm Wako Pure Chemical Industries) for 2 or 3 days to form embryoid body (EBs) in a rotary shaker at 95 r.p.m. (OS‐762RC; Optime, Tokyo, Japan). Subsequently, iPSCs were differentiated into neural crest cells (NCCs), as previously reported. Briefly, NCCs were induced from Ebs using knockout serum replacement (KSR) medium and N2 medium with graded addition of nerve growth factors and signaling factors. KSR medium was composed of DMEM‐F12 (Fujifilm Wako Pure Chemical Industries), 20% KSR (Thermo Fisher Scientific), 1% NEAA, 1% monothioglycerol (Fujifilm Wako Pure Chemical Industries), and 1% P/S. N2 medium consisted of DMEM‐F12, 1% N2 supplement (Fujifilm Wako Pure Chemical Industries), 1% NEAA, and 1% P/S. When EB formation was considered day 0 of induction, the medium was changed at days 2, 5, 7, 9, and 12. […]

[4] = system: CCKAR; assay: Ca^2+ imaging, CCKAR‐HEK293T cells; type: cell-based, human; details: Fluo‐8 AM, Ringer's solution pH 7.4, ΔF/F 0, n = 10, Dunnett's test vs. 0 nM
Description: as §1, §2, §3

[5] = system: CCKAR‐neurons; assay: MEA recording of neuronal firing, CCKAR‐neurons; type: cell-based, human; details: 100 nM vs. 0 nM CCK‐33: P = 0.018; day 27; 0 nM n = 128 electrodes, 100 nM n = 57 electrodes; 5 min before and after ligand addition
Description: as §4

[6] = system: CCKAR‐neurons; assay: Ca^2+ imaging, CCKAR‐neurons (iPSC‐derived); type: cell-based, human; details: 100 nM CCK‐33; CCKAR‐neurons day 35; Fluo‐8 AM; ΔF stim/F 0; n = 20; Student's t‐test vs. 0 nM
Description: as §4

[7] = system: GLP2R; assay: Ca^2+ imaging, GLP2R‐HEK293T cells; type: cell-based, human; details: Fluo‐8 AM, Ringer's solution pH 7.4, ΔF/F 0, n = 20
Description: as §1, §2, §3

[8] = system: GLP2R‐neurons; assay: Ca^2+ imaging, directly transduced GLP2R‐neurons; type: cell-based, human; details: 100 nM GLP2; GLP2R‐neurons (transduced during differentiation) day 35; Fluo‐8 AM; n = 20
Description: as §4

NCCc1c[nH]c2ccc(O)cc12 [5‐HT, 5‐hydroxytryptamine]
Concentration giving response (intracellular Ca^2+ concentration) [1]: > 10 µM
Response of rat nodal ganglion cells [2]: respond
Intracellular Ca^2+ concentration [3]: increased intracellular Ca^2+ concentration

CCK‐8: CCK‐Octapeptide (26–33) (CCK‐8) (4100‐v; Peptide Institute, Inc.) (DYMGWMDF; ends and bridges not checked; UniProt P06307 96-103, looked up)
Concentration giving response (change in intracellular Ca^2+ concentration) [4]: > 10 nM

CCK‐33: CCK‐33 (4201‐s; Peptide Institute, Inc.) (KAPSGRMSIVKNLQNLDPSHRISDRDYMGWMDF; ends and bridges not checked; UniProt P06307 71-103, looked up)
Neuronal firing frequency change rate [5]: significantly increased the neuronal firing frequency change rate
Intracellular Ca^2+ concentration [6]: significantly increased the intracellular Ca^2+ concentration
Concentration giving response (change in intracellular Ca^2+ concentration) [4]: > 100 nM

GLP2: GLP2 (4276‐v; Peptide Institute, Inc.) (HADGSFSDEMNTILDNLAARDFINWLIQTKITD; Glucagon-like peptide 2; UniProt P01275 146-178, looked up)
Concentration giving response (Ca^2+ imaging) [7]: > 100 nM
Percentage change in fluorescence intensity [8]: 3%
Response in Ca^2+ imaging [8]: responded slightly
